Consider 34 compounds from the METLIN SMRT retention time set (Domingo-Almenara et al. 2019).

The series can be described thus: gradient 5% acetonitrile 3 min, to 50% in 2 min, to 85% in 15 min, held 3 min, 100 µL/min. Conditions: column: Zorbax Extend-C18 2.1 x 50 mm; eluents: water / acetonitrile, 0.1% formic acid. The gist of the method:
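Pure standards were analyzed in mixtures of ~100 molecules using HPLC coupled to a quadrupole time-of-flight mass spectrometer, in both positive and negative ionization mode. Separation used a Zorbax Extend-C18 column (2.1 × 50 mm, 1.8 μm) at 100 μL/min, with water and acetonitrile each containing 0.1% formic acid. Dead and dwell volumes were 40 μL and 900 μL, and data were collected over 3 months. Retention time was read from computationally picked adduct peaks, each inspected manually.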
Compound `COc1ccc(Cl)cc1NS(=O)(=O)c1cc(-c2cc(C(F)(F)F)on2)sc1C` showed an RP-LC retention time of 1220 s. In the case of `CCCC(=O)Nc1ccc(S(=O)(=O)NCC(C)(O)COC)cc1` (centres undefined) it was 619 s; in that of `COc1ccc(Cl)cc1C(=O)Nc1cnc(N2CCCCC2)nc1`, 1070 s; in that of `Cc1cc(NC(=O)C2CCCN(c3ccc(-c4ccc(Cl)cc4)nn3)C2)no1` (centres undefined), 686 s.

As to `CSc1ccc(Cl)c(-c2nc(-c3ccc4c(c3)oc(=O)n4C)no2)c1`, the RP-LC retention time was 1170 s.

The compound `CC(=O)N1CCC(C2CCN(C(=O)C3CC=CC3)C2)CC1` (centres undefined) yielded an RP-LC retention time of 664 s. To `O=C(Nc1ccc(Cl)c(Cl)c1)Nc1nc(-c2ccccc2)cs1` belongs 1220 s; to `CCCN1C(=O)c2c(C(=O)NCc3ccccc3)ncn2CC1(C)C(=O)NCCC(C)C` (centres undefined), 817 s. In the case of `CC(=O)Oc1ccc(OC(C)=O)c2c1CC(C)=C(C)C2` it was 1110 s. In the case of `O=C(NCC1CCN(c2ncccn2)CC1)C(=O)NCC(F)(F)F` it was 626 s. `CC(C)(C)NC(=O)N1CCC(CNC(=O)c2ccccn2)CC1`: the RP-LC retention time was determined as 644 s. In the case of `CCc1nc(N2CCCC2=O)sc1C(=O)Nc1ccc(OC)c(Cl)c1` it was 905 s; in that of `CCC(=O)n1nc(C)c(S(=O)(=O)N2CCCCC2)c1C`, 1040 s; in that of `Cc1cccc(Sc2nccnc2N2CCCC(C(=O)N3CCN(c4ccccc4F)CC3)C2)c1` (centres undefined), 1280 s. In the case of `CN(CC1CCOCC1)C(=O)Nc1ccccc1Br`, the RP-LC retention time is 768 s. In the case of `O=c1n(CCOc2ccc(F)cc2)nc2ccc(S(=O)(=O)N3CCCC3)cn12` it was 859 s.

In the case of `Cc1onc(-c2ccccc2Cl)c1C(=O)OCn1nnc2ccccc2c1=O`, the RP-LC retention time was found to be 891 s. Compound `CN(C)C(=O)c1ccc2c(c1)N(CC(=O)Nc1ccc3c(c1)OCCO3)C(=O)C1CCCCN21` (centres undefined) had an RP-LC retention time of 750 s. With `CCOC(=O)N1CCC(NC(=O)C(=O)NCc2cccs2)CC1`, the RP-LC retention time is 692 s. To `O=C(CC1CCOC2(CCN(Cc3ccsc3)CC2)C1)N1CCOCC1` (centres undefined) belongs 570 s; to `O=C(NCc1ccc(F)cc1F)c1nnn2c1COC(c1ccc(Cl)cc1)C2` (centres undefined), 1040 s. To `CCn1ccc(C(=O)N2CCCn3nc(-c4ccc(OC)cc4)cc3C2)n1` belongs 756 s; to `Cn1cc(-c2nc(-c3cccc(Cl)c3)no2)c(=O)c2cc(F)c(N3CCCC3)cc21`, 627 s; to `Cc1nn(-c2ccc(Cl)cc2)c(C)c1S(=O)(=O)N1CCC(C(=O)N2CCN(C)CC2)CC1`, 642 s. Compound `COCCCNC(=O)c1ccc(-n2nc(C)c3c2CCCC3=O)cc1` showed an RP-LC retention time of 660 s. To `CCn1ncn2cc(S(=O)(=O)NCc3ccc(Cl)cc3)cc2c1=O` belongs 878 s.

In turn, `CCc1nc2cc(-c3noc(COc4ccc(Cl)cc4)n3)ccc2o1` came in with an RP-LC retention time of 1170 s. To `Cc1cccc(-c2nc(C3CCN(S(=O)(=O)c4cccc(F)c4)CC3)no2)c1` belongs 1170 s; to `Cc1c(-c2nnc(C(=O)NCCN(C)C)o2)oc2c(C)cccc12`, 651 s; to `O=C(NCc1ccccc1)c1ccc(-c2cncnc2)nc1`, 675 s. For `CC(C)n1c(=O)oc2cc(-c3noc(CNC(=O)c4ccccc4)n3)ccc21`, the RP-LC retention time worked out at 851 s. Compound `O=C(Cn1cnc2c(-c3ccc(F)cc3)csc2c1=O)N1CCCc2ccccc21` registered an RP-LC retention time of 1020 s. Regarding `CN(CCc1noc(-c2ccccc2)n1)C(=O)CSc1ccccc1`, the RP-LC retention time was 959 s. To `CCOc1nc2ccccc2nc1N1CCCC(C(=O)Nc2cc(C)c(Cl)cc2OC)C1` (centres undefined) belongs 1400 s.
